# Results taken from paper PMC12855270, “Exceptionally selective voltage-sensor trapping of NaV1.5 channels by Mg-protoporphyrin impairs cancer cell migration” (Scientific Reports, 2026).
# Read-outs that look alike come from different tables or passages of the source.
# Tests used:
# [1] = system: MDA-MB-231 cells; assay: wound-healing assay, MDA-MB-231; assay type: cell-based, human; details: for gap closure (cell migration) in wound-healing assay: 100 nM, 4 h, 2% FBS, MDA-MB-231
# [2] = target: T1, human NaV1.5 (hNaV1.5) (Homo sapiens, UniProt Q14524); details: for remaining peak inward current / effect on hNaV1.5 current: 1 µM extracellular, 5 min, -30 mV; for IC50: read-out: IC50 of hNaV1.5 current inhibition (Hill fit, constrained), current after 5 min, Hill coefficient constrained to 1 and remaining current to zero
# T1 sequence (Q14524 whole entry): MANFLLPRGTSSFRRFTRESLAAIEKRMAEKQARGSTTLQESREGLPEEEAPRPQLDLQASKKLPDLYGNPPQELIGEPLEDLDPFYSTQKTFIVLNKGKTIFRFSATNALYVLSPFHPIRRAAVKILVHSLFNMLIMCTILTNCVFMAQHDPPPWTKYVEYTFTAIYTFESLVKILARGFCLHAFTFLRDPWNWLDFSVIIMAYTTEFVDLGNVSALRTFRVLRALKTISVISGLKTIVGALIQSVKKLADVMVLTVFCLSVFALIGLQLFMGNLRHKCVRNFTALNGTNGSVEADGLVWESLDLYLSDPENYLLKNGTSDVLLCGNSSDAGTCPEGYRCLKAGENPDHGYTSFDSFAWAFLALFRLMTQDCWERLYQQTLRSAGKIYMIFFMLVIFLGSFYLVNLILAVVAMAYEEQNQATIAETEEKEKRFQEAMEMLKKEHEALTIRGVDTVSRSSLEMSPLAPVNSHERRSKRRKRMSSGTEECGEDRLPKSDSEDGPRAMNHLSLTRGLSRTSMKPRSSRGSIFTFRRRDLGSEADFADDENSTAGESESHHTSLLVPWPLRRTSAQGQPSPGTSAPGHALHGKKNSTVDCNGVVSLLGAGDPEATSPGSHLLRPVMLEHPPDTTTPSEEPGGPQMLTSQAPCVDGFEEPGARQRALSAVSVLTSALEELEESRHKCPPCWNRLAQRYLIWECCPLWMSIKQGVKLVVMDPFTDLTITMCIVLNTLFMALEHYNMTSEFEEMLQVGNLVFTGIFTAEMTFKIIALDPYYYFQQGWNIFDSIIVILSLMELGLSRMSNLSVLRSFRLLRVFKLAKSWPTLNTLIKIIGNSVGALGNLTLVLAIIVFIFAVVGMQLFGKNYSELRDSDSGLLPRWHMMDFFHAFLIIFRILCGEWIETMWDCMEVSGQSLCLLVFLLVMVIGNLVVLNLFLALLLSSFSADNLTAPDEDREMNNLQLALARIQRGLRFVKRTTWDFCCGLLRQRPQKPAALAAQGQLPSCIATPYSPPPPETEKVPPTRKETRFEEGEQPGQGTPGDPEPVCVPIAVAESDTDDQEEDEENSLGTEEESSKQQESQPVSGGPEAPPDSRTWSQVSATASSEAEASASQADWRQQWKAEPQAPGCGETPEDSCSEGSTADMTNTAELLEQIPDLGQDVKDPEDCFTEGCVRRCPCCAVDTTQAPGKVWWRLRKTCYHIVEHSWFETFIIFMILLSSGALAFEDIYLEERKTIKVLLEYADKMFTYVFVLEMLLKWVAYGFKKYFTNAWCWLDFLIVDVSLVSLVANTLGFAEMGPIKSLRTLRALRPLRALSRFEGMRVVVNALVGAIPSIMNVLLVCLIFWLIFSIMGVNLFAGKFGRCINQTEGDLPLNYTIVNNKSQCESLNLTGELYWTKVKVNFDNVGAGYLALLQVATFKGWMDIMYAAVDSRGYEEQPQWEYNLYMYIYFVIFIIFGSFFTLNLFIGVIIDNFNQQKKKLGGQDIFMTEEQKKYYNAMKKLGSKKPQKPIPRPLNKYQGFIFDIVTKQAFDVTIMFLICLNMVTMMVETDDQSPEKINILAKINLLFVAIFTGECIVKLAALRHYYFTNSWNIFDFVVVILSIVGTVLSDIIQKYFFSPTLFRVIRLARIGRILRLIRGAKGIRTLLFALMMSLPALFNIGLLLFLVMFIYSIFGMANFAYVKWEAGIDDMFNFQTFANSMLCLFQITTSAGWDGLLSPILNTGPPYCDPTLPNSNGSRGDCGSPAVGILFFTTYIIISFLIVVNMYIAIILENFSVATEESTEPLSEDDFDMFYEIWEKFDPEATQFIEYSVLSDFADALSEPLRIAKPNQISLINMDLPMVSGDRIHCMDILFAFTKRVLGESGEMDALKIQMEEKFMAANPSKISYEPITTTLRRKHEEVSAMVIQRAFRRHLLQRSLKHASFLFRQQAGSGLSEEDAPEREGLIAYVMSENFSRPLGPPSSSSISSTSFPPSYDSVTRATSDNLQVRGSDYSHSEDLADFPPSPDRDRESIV
# [3] = target: T2, human BKCa channel (KCa1.1, KCNMA1) (Homo sapiens, UniProt Q12791); details: applied to the intracellular side; cited from earlier work
# T2 construct: expressed in transfected cells; host or cells: HEK293T
# T2 sequence (Q12791 1-1178 isoform Q12791-5): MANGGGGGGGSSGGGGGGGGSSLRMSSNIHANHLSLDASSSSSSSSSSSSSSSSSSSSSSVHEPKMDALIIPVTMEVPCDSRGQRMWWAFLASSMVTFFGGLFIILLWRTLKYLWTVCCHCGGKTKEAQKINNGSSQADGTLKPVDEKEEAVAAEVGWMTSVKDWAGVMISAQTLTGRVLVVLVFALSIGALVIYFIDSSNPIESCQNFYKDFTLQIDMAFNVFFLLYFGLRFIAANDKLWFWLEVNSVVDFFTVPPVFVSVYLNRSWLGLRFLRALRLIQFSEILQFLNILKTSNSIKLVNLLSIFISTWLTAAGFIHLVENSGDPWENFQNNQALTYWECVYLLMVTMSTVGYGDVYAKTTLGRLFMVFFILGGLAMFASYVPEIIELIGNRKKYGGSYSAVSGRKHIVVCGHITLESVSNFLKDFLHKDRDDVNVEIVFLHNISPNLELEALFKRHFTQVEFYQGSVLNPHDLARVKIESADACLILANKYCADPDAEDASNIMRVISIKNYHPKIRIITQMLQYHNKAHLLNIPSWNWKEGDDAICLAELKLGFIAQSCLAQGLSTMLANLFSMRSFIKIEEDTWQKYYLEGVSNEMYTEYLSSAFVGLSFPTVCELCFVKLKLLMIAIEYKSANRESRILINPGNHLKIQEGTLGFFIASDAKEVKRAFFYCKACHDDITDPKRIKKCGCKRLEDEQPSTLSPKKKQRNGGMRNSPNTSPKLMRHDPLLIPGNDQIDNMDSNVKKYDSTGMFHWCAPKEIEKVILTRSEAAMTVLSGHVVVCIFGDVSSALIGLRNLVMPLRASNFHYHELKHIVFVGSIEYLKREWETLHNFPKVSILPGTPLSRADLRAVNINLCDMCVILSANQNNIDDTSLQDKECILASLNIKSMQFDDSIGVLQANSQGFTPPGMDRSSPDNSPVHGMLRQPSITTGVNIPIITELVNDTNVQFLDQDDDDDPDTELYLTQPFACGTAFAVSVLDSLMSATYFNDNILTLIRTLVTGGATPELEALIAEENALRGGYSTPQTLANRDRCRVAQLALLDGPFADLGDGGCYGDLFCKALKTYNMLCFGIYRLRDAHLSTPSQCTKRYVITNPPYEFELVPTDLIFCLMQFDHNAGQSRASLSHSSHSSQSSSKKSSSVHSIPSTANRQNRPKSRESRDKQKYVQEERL
# [4] = target: T1, human NaV1.5 (hNaV1.5); details: cited from earlier work
# [5] = target: T2, human BKCa channel (KCa1.1, KCNMA1); assay: BKCa currents in inside-out patches (HEK293T); assay type: biochemical; details: 1 µM to intracellular side, 1 µM free Ca2+, 80 mV
# Description: The coding sequence of human NaV1.5 (hNaV1.5, SCN5A, Acc. no. M77235) was inserted into pRC/CMV vector plasmids and expressed in HEK293T cells as described previously. The following NaV constructs were used in a similar manner: mNaV1.5 (mouse, AJ271477.1), hNaV1.2 (NM001040143), hNaV1.4 (AAO83647), hNaV1.7 (NP002968), and hNaV1.8 (Q9Y5Y9.2). The neonatal splice variant of hNaV1.5 (nhNaV1.5) was used as described by Schroeter et al.[45]. Recombinant DNAs for all NaV subgroups were engineered using PCR-based methods and verified by DNA sequencing. For the functional evaluation of BKCa channels (KCa1.1), we used human KCNMA1 (Acc. no. U11058).
# Cells were transfected with the channel-coding plasmids using ROTI®Fect (Carl Roth, Karlsruhe, Germany). Visualization of transfected cells was achieved by co-expressing green fluorescent protein or in the case of BKCa channels, CD8 + with subsequent use of anti-CD8 coated microbeads. Neuro-2A cells were utilized for the expression of hNaV1.8 channels; all other constructs were expressed in HEK293T cells. Ionic currents were recorded 1–2 days after transfection.
# Currents of BKCa channels were measured in inside-out patches after expression in HEK293T cells, using an EPC10 amplifier (HEKA Elektronik) and PACHMASTER NEXT acquisition software (Multi-Channel Systems GmbH, MCS, Reutlingen, Germany). The holding voltage was -90 mV, and currents were recorded for depolarization steps up to 80 mV. Pipettes with resistances of 1.8–2.5 MΩ were used. The extracellular (pipette) solution contained (in mM): 138 NaCl, 4 KCl, 2 CaCl2, 2 MgCl2, and 10 HEPES, pH 7.4 (NaOH); the intracellular (bath) solution with about 1 µM free Ca^2+ contained: 135 KCl, 8.63 CaCl2, 2 MgCl2, 10 EGTA, and 10 HEPES, pH 7.4 (KOH).
# All recordings were obtained at room temperature (20–23 °C). Metal protoporphyrins, diluted from stock solutions in DMSO, were applied by adding 1/3 of the final bath volume and mixing. Transmission and fluorescence light sources were turned off during data acquisition.
# [6] = target: endogenous NaV-channel current in MDA-MB-231 cells (Homo sapiens, UniProt Q14524); assay: whole-cell patch-clamp of endogenous NaV-channel current in MDA-MB-231 cells; assay type: cell-based
# Chain of endogenous NaV-channel current in MDA-MB-231 cells (Q14524 711-950): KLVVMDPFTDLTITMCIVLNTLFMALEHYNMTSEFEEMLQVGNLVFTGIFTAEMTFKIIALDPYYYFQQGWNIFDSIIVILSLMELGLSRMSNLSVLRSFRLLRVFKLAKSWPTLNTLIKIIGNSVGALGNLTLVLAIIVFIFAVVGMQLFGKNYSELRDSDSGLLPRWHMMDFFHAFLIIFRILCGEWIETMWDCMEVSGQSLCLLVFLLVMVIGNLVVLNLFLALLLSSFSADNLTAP
# [7] = system: SW-480 cells; assay: wound-healing assay, SW-480; assay type: cell-based, human
# Method: (§1) Human embryonic kidney 293 T cells (HEK293T, from CAMR; Porton Down, Salisbury, UK) were cultured in Dulbecco’s Modified Eagle’s Medium (DMEM) with Nutrient Mixture F-12 (Gibco). Mouse neuroblastoma cells (Neuro-2A, German Collection of Microorganisms and Cell Cultures, DSMZ, Braunschweig, Germany) were cultured in DMEM. The breast cancer cell lines MDA-MB-231 (DSMZ) and T-47D (American Type Culture Collection, ATCC) were cultured in RPMI 1640 medium (Sigma, R7388), while the colorectal cancer cell lines SW-480 (DSMZ) and SW-48 (ATCC) were maintained in DMEM. Media were supplemented with 10% FBS, and the cells were incubated at 37 °C in a humidified atmosphere containing 5% or 10% (Neuro-2A) CO2.
# (§2) Cells (50,000 to 70,000 per well) were seeded in a 48-well plate (Greiner Bio-One, Frickenhausen, Germany) and cultured for one day in their respective culture media supplemented with 10% FBS. Upon achieving approximately 90% confluency, a 200 µl sterile pipette tip was used to create a linear scratch (wound) in each well. Subsequently, the cells were rinsed with phosphate-buffered saline (PBS) and the medium was replaced with the same formulation containing only 2% FBS to minimize cell proliferation and to emphasize cell migration. […] Images were analyzed with ImageJ (NIH, Bethesda, MD, USA) using the “wound_healing_size_tool_updated” plugin[46] to quantify wound areas.
# [8] = system: SW-48 cells; assay: wound-healing assay, SW-48; assay type: cell-based, human
# Method: as §1, §2
# [9] = system: xenografted NaV1.5-expressing human breast cancer cells; details: mouse xenograft model; cited from earlier work
molecule,measurement,setting,value
Fe^3+-protoporphyrin IX [hemin],gap closure (cell migration) in wound-healing assay,[1],"diminished gap closure, albeit less potently than MgPpIX"
same,remaining peak inward current,[2],~ 20%
same,"reestablishment of inhibition, times slower than MgPpIX","[2]; hNaV1.5, after prepulse-induced reversal",about 8 times
same,IC50,[2],231 ± 18 nM
same,effect on BKCa channel,[3],effectively inhibited
same,IC50,"[4]; read-out: apparent half-inhibitory constant (IC50) for hNaV1.5-mediated Na+ current, extracellularly applied",~100 nM
"C=Cc1c(C)c2cc3nc(c4c5[n-]c(cc6nc(cc1[n-]2)C(C)=C6CC)c(C)c5C(=O)[C@@H]4C(=O)OC)[C@@H](CCC(=O)OC/C=C(\C)CCC[C@H](C)CCC[C@H](C)CCCC(C)C)[C@@H]3C.[Mg+2] [Chlorophyll-A, reference compound]",effect on hNaV1.5 current,[2],no detectable effect
"C=CC1=C(C)c2cc3[n-]c(cc4[n-]c(cc5nc(cc1n2)C(C)=C5C=C)c(C)c4CCC(=O)[O-])c(CCC(=O)[O-])c3C.[H+].[H+].[Mn+2] [MnPpIX, manganese-PpIX]",effect on hNaV1.5 current,[2],slightly less potent than hemin
same,IC50,[2],672 ± 18 nM
"C=CC1=C(C)c2cc3[n-]c(cc4[n-]c(cc5nc(cc1n2)C(C)=C5C=C)c(C)c4CCC(=O)[O-])c(CCC(=O)[O-])c3C.[H+].[H+].[Ni+2] [NiPpIX, nickel-PpIX]",effect on BKCa current,[5],did not block BKCa channels
same,gap closure (cell migration) in wound-healing assay,[1],failed to influence gap closure
same,effect on hNaV1.5 current,[2],failed to affect the current
same,effect on hNaV1.5 current,[2]; listed as Ni(II)PpIX,completely ineffective
"NC1=N[C@H](O)[C@H]2[C@H]3O[C@]4(O)O[C@@H]([C@@H](O)[C@@]2(N1)[C@@H]4O)[C@]3(O)CO [TTX, tetrodotoxin, reference compound]",gap closure in wound-healing assay,[1],only a weak effect
same,remaining endogenous NaV-channel current,[6],3.5 ± 0.5%
"C=CC1=C(C)c2cc3[nH]c(cc4nc(cc5[nH]c(cc1n2)c(C)c5CCC(=O)O)C(CCC(=O)O)=C4C)c(C)c3C=C [PpIX, Protoporphyrin IX, reference compound]",gap closure (cell migration) in wound-healing assay,[1],failed to influence gap closure
same,cell migration in wound-healing assay,[7],neither SnPpIX nor PpIX had any impact
same,cell migration in wound-healing assay,[8],neither SnPpIX nor PpIX had any impact
"C=CC1=C(C)c2cc3[n-]c(cc4nc(cc5[n-]c(cc1n2)c(C)c5C=C)C(C)=C4CCC(=O)O)c(CCC(=O)O)c3C.[Zn+2] [ZnPpIX, zinc-PpIX]",effect on BKCa current,[5],minor effect
same,gap closure (cell migration) in wound-healing assay,[1],"diminished gap closure, albeit less potently than MgPpIX"
same,remaining peak inward current,[2],about 10%
same,IC50,[2],106 ± 11 nM
"C=CC1=C(C)c2cc3[n-]c(cc4[n-]c(cc5nc(cc1n2)C(C)=C5C=C)c(C)c4CCC(=O)O)c(CCC(=O)O)c3C.[Cu+2] [CuPpIX, copper-PpIX]",effect on hNaV1.5 current,[2],failed to affect the current
same,effect on hNaV1.5 current,[2]; listed as Cu(II)PpIX,completely ineffective
COc1ccccc1OCC(O)CN1CCN(CC(=O)Nc2c(C)cccc2C)CC1 (stereo not drawn) [ranolazine],lung colonization by the cancer cells,[9],reduced lung colonization by the cancer cells
same,tolerability,[9],well-tolerated
"C=CC1=C(C)c2cc3[n-]c(cc4[n-]c(cc5nc(cc1n2)C(C)=C5C=C)c(C)c4CCC(=O)O)c(CCC(=O)O)c3C.[Fe+2] [heme, reference compound]",impact on hNaV1.5 channels,[4],no impact
tin-PpIX [SnPpIX],gap closure (cell migration) in wound-healing assay,[1],failed to influence gap closure
same,cell migration in wound-healing assay,[7],neither SnPpIX nor PpIX had any impact
same,cell migration in wound-healing assay,[8],neither SnPpIX nor PpIX had any impact
same,effect on hNaV1.5 current,[2],failed to affect the current
same,effect on hNaV1.5 current,[2]; listed as Sn(IV)PpIX,completely ineffective
"C=CC1=C(C)C2=Cc3c(C=C)c(C)c4[n]3[Ga][n]3c(c(C)c(CCC(=O)O)c3=CC3=NC(=C4)C(C)=C3CCC(=O)O)=CC1=N2 [GaPpIX, gallium-PpIX]",effect on BKCa current,[5],did not block BKCa channels
same,gap closure (cell migration) in wound-healing assay,[1],"diminished gap closure, albeit less potently than MgPpIX"
same,remaining peak inward current,[2],about 10%
same,IC50,[2],117 ± 8 nM
